Measured values as given in publication PMC10094158, “Discovery of a photoactivatable dimerized STING agonist based on the benzo[b]selenophene scaffold” (Chemical Science, 2023).

Assays:
[1] = target: T1, hSTING^HAQ (Stimulator of interferon genes) (Homo sapiens, UniProt Q86WV6, R71H/G230A/H232R/R293Q); assay: thermal shift (DSF), ΔTm; type: binding
T1 construct: gene STING1

[2] = target: T2, hSTING^H232 (Stimulator of interferon genes) (Homo sapiens, UniProt Q86WV6, H232); assay: SPR (KD […]); also ITC (KD […]), DSF and […] Å co-crystal structure; type: binding
T2 construct: gene STING1
T2 sequence (Q86WV6 whole entry, change not shown): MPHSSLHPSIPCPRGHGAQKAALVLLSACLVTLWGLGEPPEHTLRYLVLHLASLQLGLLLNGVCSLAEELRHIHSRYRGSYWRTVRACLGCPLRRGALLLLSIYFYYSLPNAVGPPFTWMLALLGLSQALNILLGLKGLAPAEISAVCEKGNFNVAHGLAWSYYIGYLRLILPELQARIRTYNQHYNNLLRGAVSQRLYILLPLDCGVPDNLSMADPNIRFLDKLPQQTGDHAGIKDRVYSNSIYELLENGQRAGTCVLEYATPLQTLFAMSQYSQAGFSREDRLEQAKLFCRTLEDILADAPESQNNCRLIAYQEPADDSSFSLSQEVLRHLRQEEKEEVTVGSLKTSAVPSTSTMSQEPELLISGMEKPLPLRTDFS

T1 sequence (Q86WV6 whole entry R71H/G230A/H232R/R293Q): as the sequence (Q86WV6 whole entry, change not shown) above, with R71H, G230A, H232R, R293Q counted along it

COc1cc2[se]c(C(=O)CCC(=O)O)cc2cc1OCCCOc1cc2cc(C(=O)CCC(=O)O)[se]c2cc1OC [diBSP01]
thermal shift (DSF), ΔTm [1]: 27.0 °C
Kd [2]: 49 nM
